According to ChEMBL document CHEMBL4270587, “Difuran-substituted quinoxalines as a novel class of PI3Kα H1047R mutant inhibitors: Synthesis, biological evaluation and structure-activity relationship” (Eur J Med Chem, 2018):
pEC50, pIC50: −log10 of the molar value.

Experiments:
[1] = target: PI3-kinase p110-alpha/p85-alpha (Homo sapiens, UniProt P42336, H1047R); experiment: Inhibition of recombinant full length PI3K p85alpha/p110alpha H1047R mutant (unknown origin) expressed in baculovirus infected sf9 cells using PIP2 as substrate preincubated for 10 mins followed by ATP addition and measured after 45 mins by HTRF assay
[2] = target: PI3-kinase p110-alpha/p85-alpha (Homo sapiens, UniProt P42336); experiment: Inhibition of recombinant full length PI3K p110alpha/p85alpha (unknown origin) expressed in baculovirus infected sf9 cells using PIP2 as substrate preincubated for 10 mins followed by ATP addition and measured after 45 mins by HTRF assay
[3] = target: Phosphatidylinositol 4,5-bisphosphate 3-kinase catalytic subunit beta isoform (Homo sapiens, UniProt P42338); experiment: Inhibition of PI3K-beta (unknown origin) after 40 mins by Kinase-Glo assay
[4] = target: Phosphatidylinositol 4,5-bisphosphate 3-kinase catalytic subunit gamma isoform (Homo sapiens, UniProt P48736); experiment: Inhibition of PI3K-gamma (unknown origin) after 40 mins by Kinase-Glo assay
[5] = target: T1, Phosphatidylinositol 4,5-bisphosphate 3-kinase catalytic subunit delta isoform (Homo sapiens, UniProt O00329); experiment: Inhibition of PI3K-delta (unknown origin) after 40 mins by Kinase-Glo assay
T1 sequence (O00329 whole entry): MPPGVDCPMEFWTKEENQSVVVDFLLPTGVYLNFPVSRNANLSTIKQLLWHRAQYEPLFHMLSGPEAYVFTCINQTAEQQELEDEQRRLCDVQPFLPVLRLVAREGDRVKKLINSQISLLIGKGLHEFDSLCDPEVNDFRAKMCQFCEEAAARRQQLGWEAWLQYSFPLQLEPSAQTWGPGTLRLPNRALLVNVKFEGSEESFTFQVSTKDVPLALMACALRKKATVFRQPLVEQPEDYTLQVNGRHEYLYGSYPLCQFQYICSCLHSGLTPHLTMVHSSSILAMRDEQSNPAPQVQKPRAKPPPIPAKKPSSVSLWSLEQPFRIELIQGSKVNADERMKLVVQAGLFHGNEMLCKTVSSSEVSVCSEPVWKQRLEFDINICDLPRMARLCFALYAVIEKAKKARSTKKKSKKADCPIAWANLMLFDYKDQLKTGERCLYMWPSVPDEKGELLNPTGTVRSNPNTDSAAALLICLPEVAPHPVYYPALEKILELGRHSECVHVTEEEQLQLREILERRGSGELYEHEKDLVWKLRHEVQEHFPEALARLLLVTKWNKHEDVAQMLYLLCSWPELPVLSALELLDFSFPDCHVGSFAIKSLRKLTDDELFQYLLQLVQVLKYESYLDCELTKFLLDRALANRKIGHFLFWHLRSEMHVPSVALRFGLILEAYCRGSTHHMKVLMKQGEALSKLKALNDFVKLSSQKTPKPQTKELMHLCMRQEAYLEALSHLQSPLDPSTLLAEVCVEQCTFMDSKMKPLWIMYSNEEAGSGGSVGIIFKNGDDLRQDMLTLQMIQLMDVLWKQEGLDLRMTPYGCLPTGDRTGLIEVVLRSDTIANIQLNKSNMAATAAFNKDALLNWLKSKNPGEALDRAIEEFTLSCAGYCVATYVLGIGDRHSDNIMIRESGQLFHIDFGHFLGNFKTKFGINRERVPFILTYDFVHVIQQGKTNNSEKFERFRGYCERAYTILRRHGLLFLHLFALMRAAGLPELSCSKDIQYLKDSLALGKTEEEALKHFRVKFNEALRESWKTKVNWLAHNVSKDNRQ

[6] = Inhibition of mTORC1 (unknown origin); set-up: species or system Homo sapiens
[7] = system: HCT-116; experiment: Cell cycle arrest in human HCT116 cells assessed as accumulation at G1 phase at 5 uM after 24 hrs by propidium iodide staining based flow cytometry (reference value: 38.72%); format: functional
[8] = system: HCT-116; experiment: Cell cycle arrest in human HCT116 cells assessed as accumulation at S-phase at 5 uM after 24 hrs by propidium iodide staining based flow cytometry (reference value: 29.81%); format: functional
[9] = system: HCT-116; experiment: Cell cycle arrest in human HCT116 cells assessed as accumulation at G2/M-phase at 5 uM after 24 hrs by propidium iodide staining based flow cytometry (reference value: 31.47%); format: functional
[10] = system: HCT-116; experiment: Cell cycle arrest in human HCT116 cells assessed as accumulation at G1 phase at 10 uM after 24 hrs by propidium iodide staining based flow cytometry (reference value: 38.72%); format: functional
[11] = system: HCT-116; experiment: Cell cycle arrest in human HCT116 cells assessed as accumulation at S-phase at 10 uM after 24 hrs by propidium iodide staining based flow cytometry (reference value: 29.81%); format: functional
[12] = system: HCT-116; experiment: Cell cycle arrest in human HCT116 cells assessed as accumulation at G2/M-phase at 10 uM after 24 hrs by propidium iodide staining based flow cytometry (reference value: 31.47%); format: functional
[13] = system: HCT-116; experiment: Cell cycle arrest in human HCT116 cells assessed as accumulation at G1 phase at 20 uM after 24 hrs by propidium iodide staining based flow cytometry (reference value: 38.72%); format: functional
[14] = system: HCT-116; experiment: Cell cycle arrest in human HCT116 cells assessed as accumulation at S-phase at 20 uM after 24 hrs by propidium iodide staining based flow cytometry (reference value: 29.81%); format: functional
[15] = system: HCT-116; experiment: Cell cycle arrest in human HCT116 cells assessed as accumulation at G2/M-phase at 20 uM after 24 hrs by propidium iodide staining based flow cytometry (reference value: 31.47%); format: functional
[16] = system: HCT-116; experiment: Cell cycle arrest in human HCT116 cells assessed as accumulation at G1 phase after 24 hrs by propidium iodide staining based flow cytometry; format: functional
[17] = system: HCT-116; experiment: Induction of apoptosis in human HCT116 cells assessed as live cells at 6.25 uM after 24 hrs by Annexin V-FITC/propidium iodide staining based flow cytometry (reference value: 89.89%); format: functional
[18] = system: HCT-116; experiment: Induction of apoptosis in human HCT116 cells assessed as early apoptotic cells at 6.25 uM after 24 hrs by Annexin V-FITC/propidium iodide staining based flow cytometry (reference value: 2.24%); format: functional
[19] = system: HCT-116; experiment: Induction of apoptosis in human HCT116 cells assessed as late apoptotic cells at 6.25 uM after 24 hrs by Annexin V-FITC/propidium iodide staining based flow cytometry (reference value: 7.2%); format: functional
[20] = system: HCT-116; experiment: Induction of apoptosis in human HCT116 cells assessed as necrotic cells at 6.25 uM after 24 hrs by Annexin V-FITC/propidium iodide staining based flow cytometry (reference value: […]); format: functional
[21] = system: HCT-116; experiment: Induction of apoptosis in human HCT116 cells assessed as live cells at 12.5 uM after 24 hrs by Annexin V-FITC/propidium iodide staining based flow cytometry (reference value: 89.89%); format: functional
[22] = system: HCT-116; experiment: Induction of apoptosis in human HCT116 cells assessed as early apoptotic cells at 12.5 uM after 24 hrs by Annexin V-FITC/propidium iodide staining based flow cytometry (reference value: 2.24%); format: functional
[23] = system: HCT-116; experiment: Induction of apoptosis in human HCT116 cells assessed as late apoptotic cells at 12.5 uM after 24 hrs by Annexin V-FITC/propidium iodide staining based flow cytometry (reference value: 7.2%); format: functional
[24] = system: HCT-116; experiment: Induction of apoptosis in human HCT116 cells assessed as necrotic cells at 12.5 uM after 24 hrs by Annexin V-FITC/propidium iodide staining based flow cytometry (reference value: […]); format: functional
[25] = system: HCT-116; experiment: Induction of apoptosis in human HCT116 cells assessed as live cells at 25 uM after 24 hrs by Annexin V-FITC/propidium iodide staining based flow cytometry (reference value: 89.89%); format: functional
[26] = system: HCT-116; experiment: Induction of apoptosis in human HCT116 cells assessed as early apoptotic cells at 25 uM after 24 hrs by Annexin V-FITC/propidium iodide staining based flow cytometry (reference value: 2.24%); format: functional
[27] = system: HCT-116; experiment: Induction of apoptosis in human HCT116 cells assessed as late apoptotic cells at 25 uM after 24 hrs by Annexin V-FITC/propidium iodide staining based flow cytometry (reference value: 7.2%); format: functional
[28] = system: HCT-116; experiment: Induction of apoptosis in human HCT116 cells assessed as necrotic cells at 25 uM after 24 hrs by Annexin V-FITC/propidium iodide staining based flow cytometry (reference value: […]); format: functional
[29] = system: HCT-116; experiment: Induction of apoptosis in human HCT116 cells after 24 hrs by Annexin V-FITC/propidium iodide staining based flow cytometry; format: functional, cell-based
[30] = system: HCT-116; experiment: Induction of apoptosis in human HCT116 cells assessed as increase in active caspase-8 protein expression after 72 hrs by Western blot analysis; format: functional, cell-based
[31] = system: HCT-116; experiment: Induction of apoptosis in human HCT116 cells assessed as increase in active caspase-9 protein expression after 72 hrs by Western blot analysis; format: functional, cell-based
[32] = system: HCT-116; experiment: Induction of apoptosis in human HCT116 cells assessed as increase in active caspase-3 protein expression after 72 hrs by Western blot analysis; format: functional, cell-based
[33] = system: HCT-116; experiment: cells; details: Homo sapiens, HCT-116, 72 h
[34] = system: MCF7; experiment: cells; details: Homo sapiens, MCF7, 72 h
Description: Antiproliferative activity against human MCF7 cells after 72 hrs by CCK8 assay

Phosphatidylinositol 4,5-bisphosphate 3-kinase catalytic subunit beta isoform, sequence (P42338 whole entry, canonical isoform): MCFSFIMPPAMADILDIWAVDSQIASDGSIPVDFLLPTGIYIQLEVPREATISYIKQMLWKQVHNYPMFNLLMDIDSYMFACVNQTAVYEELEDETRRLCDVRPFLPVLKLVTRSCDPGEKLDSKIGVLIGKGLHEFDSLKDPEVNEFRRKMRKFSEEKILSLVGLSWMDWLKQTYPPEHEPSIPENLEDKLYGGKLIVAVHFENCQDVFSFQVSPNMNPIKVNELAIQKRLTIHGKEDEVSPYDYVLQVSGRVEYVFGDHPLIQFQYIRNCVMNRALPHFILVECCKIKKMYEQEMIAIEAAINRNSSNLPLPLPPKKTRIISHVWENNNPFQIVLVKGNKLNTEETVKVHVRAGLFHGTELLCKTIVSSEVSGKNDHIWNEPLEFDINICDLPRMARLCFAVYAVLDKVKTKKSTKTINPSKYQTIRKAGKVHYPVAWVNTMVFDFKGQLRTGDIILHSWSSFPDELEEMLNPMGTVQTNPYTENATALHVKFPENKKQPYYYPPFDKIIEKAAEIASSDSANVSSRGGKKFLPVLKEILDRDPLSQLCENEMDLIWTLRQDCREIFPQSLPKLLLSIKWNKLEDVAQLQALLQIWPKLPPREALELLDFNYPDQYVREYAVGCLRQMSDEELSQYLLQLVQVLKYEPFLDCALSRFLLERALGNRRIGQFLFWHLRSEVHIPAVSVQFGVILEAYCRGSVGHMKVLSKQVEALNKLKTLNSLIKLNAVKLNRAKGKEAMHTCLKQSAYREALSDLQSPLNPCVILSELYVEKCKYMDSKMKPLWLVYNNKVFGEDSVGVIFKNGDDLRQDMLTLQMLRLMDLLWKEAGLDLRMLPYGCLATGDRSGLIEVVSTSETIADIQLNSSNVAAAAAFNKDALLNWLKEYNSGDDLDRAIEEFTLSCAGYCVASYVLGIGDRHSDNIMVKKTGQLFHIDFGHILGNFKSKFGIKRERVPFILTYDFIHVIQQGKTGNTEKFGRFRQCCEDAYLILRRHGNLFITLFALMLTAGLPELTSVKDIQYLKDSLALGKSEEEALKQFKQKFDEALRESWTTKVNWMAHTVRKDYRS
PI3-kinase p110-alpha/p85-alpha (Homo sapiens, UniProt P42336, H1047R), sequence (P42336 whole entry H1047R, looked up): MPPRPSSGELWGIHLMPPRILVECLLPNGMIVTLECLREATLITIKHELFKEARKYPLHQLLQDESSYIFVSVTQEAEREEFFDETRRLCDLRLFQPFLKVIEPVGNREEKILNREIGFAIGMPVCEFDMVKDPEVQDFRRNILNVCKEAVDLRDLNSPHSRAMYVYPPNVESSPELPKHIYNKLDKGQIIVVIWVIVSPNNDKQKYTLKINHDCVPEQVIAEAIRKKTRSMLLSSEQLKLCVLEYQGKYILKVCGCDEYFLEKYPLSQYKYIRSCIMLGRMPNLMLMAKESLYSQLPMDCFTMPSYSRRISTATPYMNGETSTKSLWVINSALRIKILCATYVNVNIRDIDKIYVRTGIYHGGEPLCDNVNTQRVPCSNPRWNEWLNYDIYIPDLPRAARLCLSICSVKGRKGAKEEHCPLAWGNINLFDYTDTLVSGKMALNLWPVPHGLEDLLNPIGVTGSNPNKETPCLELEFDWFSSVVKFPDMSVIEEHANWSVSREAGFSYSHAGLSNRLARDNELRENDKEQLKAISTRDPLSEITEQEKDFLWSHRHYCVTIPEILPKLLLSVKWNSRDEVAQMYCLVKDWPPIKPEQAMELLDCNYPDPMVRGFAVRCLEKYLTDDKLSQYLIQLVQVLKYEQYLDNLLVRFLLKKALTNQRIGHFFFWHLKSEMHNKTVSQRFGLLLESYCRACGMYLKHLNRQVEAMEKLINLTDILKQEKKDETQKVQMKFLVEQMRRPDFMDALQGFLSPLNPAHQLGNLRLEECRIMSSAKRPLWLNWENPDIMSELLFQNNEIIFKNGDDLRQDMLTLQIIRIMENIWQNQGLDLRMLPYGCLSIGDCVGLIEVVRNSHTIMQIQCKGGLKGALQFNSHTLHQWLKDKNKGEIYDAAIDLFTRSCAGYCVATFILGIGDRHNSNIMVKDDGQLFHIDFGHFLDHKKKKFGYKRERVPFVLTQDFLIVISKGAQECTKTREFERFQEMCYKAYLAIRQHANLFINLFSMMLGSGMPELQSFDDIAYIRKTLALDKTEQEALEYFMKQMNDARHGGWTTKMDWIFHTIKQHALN
PI3-kinase p110-alpha/p85-alpha (Homo sapiens, UniProt P42336), sequence (P27986 whole entry, canonical isoform): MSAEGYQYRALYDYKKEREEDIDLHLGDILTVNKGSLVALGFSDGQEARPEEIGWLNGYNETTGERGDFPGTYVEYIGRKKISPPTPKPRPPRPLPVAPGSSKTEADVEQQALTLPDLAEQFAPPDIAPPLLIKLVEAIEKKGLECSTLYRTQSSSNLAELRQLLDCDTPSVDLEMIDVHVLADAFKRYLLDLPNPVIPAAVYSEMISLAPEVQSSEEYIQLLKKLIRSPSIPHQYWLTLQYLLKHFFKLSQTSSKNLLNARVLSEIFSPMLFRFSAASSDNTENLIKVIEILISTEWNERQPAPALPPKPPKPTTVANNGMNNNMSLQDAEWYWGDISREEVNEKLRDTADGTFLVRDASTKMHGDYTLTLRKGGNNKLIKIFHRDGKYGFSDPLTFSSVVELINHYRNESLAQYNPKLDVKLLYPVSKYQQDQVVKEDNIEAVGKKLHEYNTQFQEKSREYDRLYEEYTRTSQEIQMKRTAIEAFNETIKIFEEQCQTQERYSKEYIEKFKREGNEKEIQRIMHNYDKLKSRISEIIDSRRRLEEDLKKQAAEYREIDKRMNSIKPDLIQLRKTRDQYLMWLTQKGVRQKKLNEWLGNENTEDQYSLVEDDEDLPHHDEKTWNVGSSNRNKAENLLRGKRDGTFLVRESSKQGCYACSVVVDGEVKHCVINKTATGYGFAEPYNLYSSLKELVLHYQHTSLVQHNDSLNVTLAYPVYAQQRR
PI3-kinase p110-alpha/p85-alpha (Homo sapiens, UniProt P42336), sequence (P42336 whole entry, canonical isoform): as the sequence (P42336 whole entry H1047R, looked up) above, with R1047H counted along it
Phosphatidylinositol 4,5-bisphosphate 3-kinase catalytic subunit gamma isoform, sequence (P48736 whole entry, canonical isoform): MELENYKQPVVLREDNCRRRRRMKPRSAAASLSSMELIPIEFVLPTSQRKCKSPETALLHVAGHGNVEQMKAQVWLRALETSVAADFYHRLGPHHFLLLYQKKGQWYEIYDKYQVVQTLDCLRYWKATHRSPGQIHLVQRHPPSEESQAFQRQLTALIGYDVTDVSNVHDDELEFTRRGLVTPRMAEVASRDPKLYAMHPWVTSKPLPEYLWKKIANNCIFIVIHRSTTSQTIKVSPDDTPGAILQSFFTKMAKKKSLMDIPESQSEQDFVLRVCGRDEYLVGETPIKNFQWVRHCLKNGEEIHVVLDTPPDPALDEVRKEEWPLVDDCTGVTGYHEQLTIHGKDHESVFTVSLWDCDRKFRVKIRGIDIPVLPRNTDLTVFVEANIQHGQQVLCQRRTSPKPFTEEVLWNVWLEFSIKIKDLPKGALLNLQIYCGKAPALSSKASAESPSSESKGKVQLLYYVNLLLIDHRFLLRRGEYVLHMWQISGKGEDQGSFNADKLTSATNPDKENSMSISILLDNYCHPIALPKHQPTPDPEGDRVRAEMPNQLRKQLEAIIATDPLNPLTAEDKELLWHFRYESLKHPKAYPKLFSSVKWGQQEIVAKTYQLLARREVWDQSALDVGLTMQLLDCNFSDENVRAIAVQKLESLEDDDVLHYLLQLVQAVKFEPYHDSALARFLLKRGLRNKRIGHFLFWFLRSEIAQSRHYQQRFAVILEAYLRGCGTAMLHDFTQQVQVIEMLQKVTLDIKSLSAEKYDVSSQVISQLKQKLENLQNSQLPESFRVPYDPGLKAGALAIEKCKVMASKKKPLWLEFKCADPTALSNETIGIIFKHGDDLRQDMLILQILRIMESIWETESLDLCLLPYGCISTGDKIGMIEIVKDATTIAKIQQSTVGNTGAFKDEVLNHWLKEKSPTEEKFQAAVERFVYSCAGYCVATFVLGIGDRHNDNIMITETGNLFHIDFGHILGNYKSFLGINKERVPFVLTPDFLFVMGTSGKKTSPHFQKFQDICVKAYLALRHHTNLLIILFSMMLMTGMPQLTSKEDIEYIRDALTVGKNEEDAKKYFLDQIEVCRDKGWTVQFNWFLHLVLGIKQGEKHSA

Fc1ccccc1-c1cc2nc(-c3ccco3)c(-c3ccco3)nc2cc1Br
pEC50 [1]: 6.86 | pEC50 [2]: 7.03 | pEC50 [3]: 5.48 | pEC50 [4]: 5.00 | pEC50 [5]: 4.80 | pEC50 [6]: < 4.52 | Activity [7]: 44.42% | Activity [8]: 24.42% | Activity [9]: 32.16% | Activity [10]: 57.67% | Activity [11]: 21.99% | Activity [12]: 20.34% | Activity [13]: 70.72% | Activity [14]: 18.28% | Activity [15]: 11% | Activity [16]: Dose-dependent effect | Activity [17]: 84.79% | Activity [18]: 3.57% | Activity [19]: 10.63% | Activity [20]: 1.01% | Activity [21]: 80.29% | Activity [22]: 3.03% | Activity [23]: 15.72% | Activity [24]: 0.96% | Activity [25]: 61.38% | Activity [26]: 13.97% | Activity [27]: 23.77% | Activity [28]: 0.88% | Activity [29]: Dose-dependent effect | Activity [30]: Dose-dependent effect | Activity [31]: Dose-dependent effect | Activity [32]: Dose-dependent effect | pIC50 [33]: 4.95 | pIC50 [34]: 4.86
